Among the data in paper PMC10176470, “Engaging a Non-catalytic Cysteine Residue Drives Potent and Selective Inhibition of Caspase-6” (Journal of the American Chemical Society, 2023) are enrich.exp.med, enrich.exp.med.lin and enrich.exp.med.log2 values, retold here.

Assay type in all cases: cell-based
Test [1] deals with proteins of HEK293T cells transiently overexpressing caspase-6 (Homo sapiens, UniProt O94919). As to conditions: exp_ref Probe; protein ENDOD1 (O94919); analysis C6.
Test [2] concerns the target proteins of HEK293T cells transiently overexpressing caspase-6 (Homo sapiens, UniProt P00492). Conditions: Probe; protein HPRT1 P00492.
Test [3] deals with proteins of HEK293T cells transiently overexpressing caspase-6 (Homo sapiens, UniProt P04406). As to conditions: exp_ref Probe; protein GAPDH (P04406); analysis C6.
Sequence of proteins of HEK293T cells transiently overexpressing caspase-6 (Homo sapiens, UniProt P04406) (P04406 whole entry): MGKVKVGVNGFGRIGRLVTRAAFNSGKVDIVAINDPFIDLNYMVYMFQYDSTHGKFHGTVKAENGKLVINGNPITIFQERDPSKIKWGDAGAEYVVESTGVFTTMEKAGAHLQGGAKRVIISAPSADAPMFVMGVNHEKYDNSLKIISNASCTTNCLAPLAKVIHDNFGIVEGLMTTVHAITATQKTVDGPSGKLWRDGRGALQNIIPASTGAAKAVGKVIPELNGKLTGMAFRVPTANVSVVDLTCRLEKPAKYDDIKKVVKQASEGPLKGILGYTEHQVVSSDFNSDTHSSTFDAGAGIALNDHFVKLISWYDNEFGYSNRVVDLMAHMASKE
For test [4], the target named is proteins of HEK293T cells transiently overexpressing caspase-6 (Homo sapiens, UniProt P06744). Conditions: protein GPI (P06744), analysis C6.
For test [5], the target named is T1, proteins of HEK293T cells transiently overexpressing caspase-6 (Homo sapiens, UniProt P30101).
T1 sequence (P30101 25-505): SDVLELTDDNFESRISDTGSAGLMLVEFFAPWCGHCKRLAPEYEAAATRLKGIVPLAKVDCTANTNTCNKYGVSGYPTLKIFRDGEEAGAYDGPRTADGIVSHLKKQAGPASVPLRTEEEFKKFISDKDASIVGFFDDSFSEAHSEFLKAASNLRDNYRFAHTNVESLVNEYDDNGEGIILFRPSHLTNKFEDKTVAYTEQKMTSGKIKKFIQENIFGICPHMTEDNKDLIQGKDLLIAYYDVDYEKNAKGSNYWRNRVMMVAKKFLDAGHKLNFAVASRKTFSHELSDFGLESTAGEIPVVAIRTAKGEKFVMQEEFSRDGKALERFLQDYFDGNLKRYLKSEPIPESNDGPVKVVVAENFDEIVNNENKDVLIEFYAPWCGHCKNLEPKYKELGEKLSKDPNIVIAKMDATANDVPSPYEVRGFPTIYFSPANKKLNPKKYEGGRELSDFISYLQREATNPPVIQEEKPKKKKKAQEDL
Conditions: protein PDIA3 (P30101).

Test [6] has as its target proteins of HEK293T cells transiently overexpressing caspase-6 (Homo sapiens, UniProt P38919). As to conditions: exp_ref Probe; protein EIF4A3 (P38919); analysis C6.
In test [7] the target is proteins of HEK293T cells transiently overexpressing caspase-6 (Homo sapiens, UniProt P49588). As to conditions: Probe; protein AARS P49588.
Test [8] addresses proteins of HEK293T cells transiently overexpressing caspase-6 (Homo sapiens, UniProt P53396). As to conditions: exp_ref Probe; protein ACLY (P53396); analysis C6.
The target of test [9] is proteins of HEK293T cells transiently overexpressing caspase-6 (Homo sapiens, UniProt P63241). Conditions: exp_ref Probe; protein EIF5A (P63241); analysis C6.
Sequence of proteins of HEK293T cells transiently overexpressing caspase-6 (Homo sapiens, UniProt P63241) (P63241 whole entry): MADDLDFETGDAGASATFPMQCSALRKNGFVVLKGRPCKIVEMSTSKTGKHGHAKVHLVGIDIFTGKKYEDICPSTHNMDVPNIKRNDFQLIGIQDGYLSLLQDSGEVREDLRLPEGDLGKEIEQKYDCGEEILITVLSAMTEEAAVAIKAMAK
In test [10] the target is proteins of HEK293T cells transiently overexpressing caspase-6 (Homo sapiens, UniProt Q08211). Conditions: exp_ref Probe; protein DHX9 (Q08211); analysis C6.
In test [11] the target is proteins of HEK293T cells transiently overexpressing caspase-6 (Homo sapiens, UniProt Q15366). As to conditions: exp_ref Probe; protein PCBP2 (Q15366); analysis C6.
Sequence of proteins of HEK293T cells transiently overexpressing caspase-6 (Homo sapiens, UniProt Q15366) (Q15366 whole entry): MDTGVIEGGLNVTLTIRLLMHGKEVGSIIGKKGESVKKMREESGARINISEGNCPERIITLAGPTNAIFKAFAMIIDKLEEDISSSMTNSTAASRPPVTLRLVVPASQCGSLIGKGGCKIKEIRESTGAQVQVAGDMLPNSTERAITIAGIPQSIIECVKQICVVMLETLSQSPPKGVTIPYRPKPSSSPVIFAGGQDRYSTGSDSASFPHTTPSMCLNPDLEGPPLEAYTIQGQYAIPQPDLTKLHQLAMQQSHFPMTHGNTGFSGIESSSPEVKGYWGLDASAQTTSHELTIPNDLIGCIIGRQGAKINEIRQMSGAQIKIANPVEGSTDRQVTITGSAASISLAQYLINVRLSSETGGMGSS
Test [12] deals with T2, proteins of HEK293T cells transiently overexpressing caspase-6 (Homo sapiens, UniProt Q92945).
T2 sequence (Q92945 1-711): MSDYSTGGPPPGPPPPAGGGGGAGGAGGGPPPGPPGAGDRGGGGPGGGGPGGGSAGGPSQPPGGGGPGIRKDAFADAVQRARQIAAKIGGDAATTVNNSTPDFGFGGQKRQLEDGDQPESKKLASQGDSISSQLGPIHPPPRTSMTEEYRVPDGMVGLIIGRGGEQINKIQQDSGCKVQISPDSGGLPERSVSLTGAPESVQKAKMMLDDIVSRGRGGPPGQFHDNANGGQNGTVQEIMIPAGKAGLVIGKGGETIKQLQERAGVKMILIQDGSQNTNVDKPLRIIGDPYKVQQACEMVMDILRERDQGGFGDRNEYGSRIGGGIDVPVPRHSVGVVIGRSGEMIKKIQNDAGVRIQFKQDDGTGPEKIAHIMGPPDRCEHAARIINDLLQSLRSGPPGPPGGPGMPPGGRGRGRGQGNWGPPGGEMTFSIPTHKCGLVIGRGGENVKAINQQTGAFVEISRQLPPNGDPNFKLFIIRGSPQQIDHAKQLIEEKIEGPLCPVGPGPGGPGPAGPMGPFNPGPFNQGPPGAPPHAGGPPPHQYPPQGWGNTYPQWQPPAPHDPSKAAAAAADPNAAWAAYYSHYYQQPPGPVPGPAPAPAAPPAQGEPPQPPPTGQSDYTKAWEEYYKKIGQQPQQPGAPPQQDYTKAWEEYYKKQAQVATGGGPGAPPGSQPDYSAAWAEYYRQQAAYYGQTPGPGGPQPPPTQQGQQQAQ
Conditions: protein KHSRP (Q92945).

Test [13] has as its target proteins of HEK293T cells transiently overexpressing caspase-6 (Homo sapiens, UniProt Q99460). Conditions: protein PSMD1 (Q99460); exp_ref Probe; analysis C6.
Test [14] has as its target proteins of HEK293T cells transiently overexpressing caspase-6 (Homo sapiens, UniProt Q9P2E9). As to conditions: exp_ref Probe; protein RRBP1 (Q9P2E9); analysis C6.

Sequence of proteins of HEK293T cells transiently overexpressing caspase-6 (Homo sapiens, UniProt P00492) (P00492 whole entry): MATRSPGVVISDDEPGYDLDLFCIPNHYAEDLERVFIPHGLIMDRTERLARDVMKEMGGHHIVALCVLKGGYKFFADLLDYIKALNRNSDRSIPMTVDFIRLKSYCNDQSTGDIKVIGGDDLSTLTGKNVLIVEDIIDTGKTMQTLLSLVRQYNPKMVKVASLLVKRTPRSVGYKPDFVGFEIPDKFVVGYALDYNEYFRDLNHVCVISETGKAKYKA
Sequence of proteins of HEK293T cells transiently overexpressing caspase-6 (Homo sapiens, UniProt Q9P2E9) (Q9P2E9 whole entry): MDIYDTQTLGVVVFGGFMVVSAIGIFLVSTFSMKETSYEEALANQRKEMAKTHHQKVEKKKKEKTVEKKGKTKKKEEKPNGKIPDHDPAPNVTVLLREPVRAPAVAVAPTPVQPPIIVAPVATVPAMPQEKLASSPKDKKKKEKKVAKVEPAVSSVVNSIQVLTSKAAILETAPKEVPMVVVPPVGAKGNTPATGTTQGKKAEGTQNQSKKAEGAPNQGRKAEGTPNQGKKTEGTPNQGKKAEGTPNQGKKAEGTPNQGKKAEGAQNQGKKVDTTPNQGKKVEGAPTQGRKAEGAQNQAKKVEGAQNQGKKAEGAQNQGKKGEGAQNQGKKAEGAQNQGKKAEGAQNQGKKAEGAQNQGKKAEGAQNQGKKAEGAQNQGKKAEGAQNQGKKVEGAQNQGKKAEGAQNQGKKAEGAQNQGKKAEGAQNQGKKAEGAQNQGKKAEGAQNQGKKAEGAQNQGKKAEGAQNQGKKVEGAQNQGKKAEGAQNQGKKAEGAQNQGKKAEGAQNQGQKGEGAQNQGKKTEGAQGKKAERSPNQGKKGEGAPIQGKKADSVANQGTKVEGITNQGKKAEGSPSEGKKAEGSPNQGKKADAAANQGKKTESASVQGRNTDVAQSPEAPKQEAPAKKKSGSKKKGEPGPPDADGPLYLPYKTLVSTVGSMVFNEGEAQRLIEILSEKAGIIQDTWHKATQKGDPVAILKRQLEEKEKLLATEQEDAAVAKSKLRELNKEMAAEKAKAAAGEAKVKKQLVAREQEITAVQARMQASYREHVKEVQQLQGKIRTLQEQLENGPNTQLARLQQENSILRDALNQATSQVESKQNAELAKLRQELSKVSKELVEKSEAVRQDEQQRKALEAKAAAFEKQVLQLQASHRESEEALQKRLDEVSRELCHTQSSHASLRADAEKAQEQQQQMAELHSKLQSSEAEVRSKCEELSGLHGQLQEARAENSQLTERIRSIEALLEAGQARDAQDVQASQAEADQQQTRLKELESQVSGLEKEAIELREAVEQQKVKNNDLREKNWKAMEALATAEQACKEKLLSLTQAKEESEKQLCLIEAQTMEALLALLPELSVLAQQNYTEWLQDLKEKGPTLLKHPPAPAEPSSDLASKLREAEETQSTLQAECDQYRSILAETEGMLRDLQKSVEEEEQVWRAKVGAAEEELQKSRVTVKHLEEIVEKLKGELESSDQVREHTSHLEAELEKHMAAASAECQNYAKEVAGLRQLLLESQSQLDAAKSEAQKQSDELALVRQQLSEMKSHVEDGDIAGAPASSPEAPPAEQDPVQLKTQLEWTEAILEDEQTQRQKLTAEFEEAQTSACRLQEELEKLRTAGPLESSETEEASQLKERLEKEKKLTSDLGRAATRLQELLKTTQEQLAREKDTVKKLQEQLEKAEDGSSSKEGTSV
Sequence of proteins of HEK293T cells transiently overexpressing caspase-6 (Homo sapiens, UniProt Q99460) (Q99460 whole entry): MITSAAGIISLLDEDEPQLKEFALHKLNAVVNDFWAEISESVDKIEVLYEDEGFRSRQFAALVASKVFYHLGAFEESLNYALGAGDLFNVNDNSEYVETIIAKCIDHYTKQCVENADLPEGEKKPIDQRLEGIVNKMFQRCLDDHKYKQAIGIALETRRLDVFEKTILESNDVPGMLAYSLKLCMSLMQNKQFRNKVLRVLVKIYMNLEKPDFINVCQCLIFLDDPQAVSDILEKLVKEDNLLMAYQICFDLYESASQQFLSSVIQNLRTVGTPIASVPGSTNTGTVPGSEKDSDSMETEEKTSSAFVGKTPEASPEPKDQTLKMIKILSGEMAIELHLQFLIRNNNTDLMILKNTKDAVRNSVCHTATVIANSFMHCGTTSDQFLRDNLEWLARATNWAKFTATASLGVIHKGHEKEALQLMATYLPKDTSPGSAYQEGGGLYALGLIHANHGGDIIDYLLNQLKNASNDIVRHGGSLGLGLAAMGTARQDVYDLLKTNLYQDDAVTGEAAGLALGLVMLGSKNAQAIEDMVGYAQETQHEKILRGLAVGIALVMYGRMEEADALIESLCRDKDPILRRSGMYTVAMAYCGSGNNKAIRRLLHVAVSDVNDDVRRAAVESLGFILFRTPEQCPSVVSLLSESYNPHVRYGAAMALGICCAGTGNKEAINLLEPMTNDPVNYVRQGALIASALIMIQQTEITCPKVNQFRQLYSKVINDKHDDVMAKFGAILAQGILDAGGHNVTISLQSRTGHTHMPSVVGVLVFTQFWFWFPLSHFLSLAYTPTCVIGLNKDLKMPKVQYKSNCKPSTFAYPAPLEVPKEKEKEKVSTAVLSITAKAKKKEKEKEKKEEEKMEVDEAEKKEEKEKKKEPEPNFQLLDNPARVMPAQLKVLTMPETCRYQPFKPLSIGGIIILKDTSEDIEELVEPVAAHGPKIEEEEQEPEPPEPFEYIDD
Sequence of proteins of HEK293T cells transiently overexpressing caspase-6 (Homo sapiens, UniProt P38919) (P38919 whole entry): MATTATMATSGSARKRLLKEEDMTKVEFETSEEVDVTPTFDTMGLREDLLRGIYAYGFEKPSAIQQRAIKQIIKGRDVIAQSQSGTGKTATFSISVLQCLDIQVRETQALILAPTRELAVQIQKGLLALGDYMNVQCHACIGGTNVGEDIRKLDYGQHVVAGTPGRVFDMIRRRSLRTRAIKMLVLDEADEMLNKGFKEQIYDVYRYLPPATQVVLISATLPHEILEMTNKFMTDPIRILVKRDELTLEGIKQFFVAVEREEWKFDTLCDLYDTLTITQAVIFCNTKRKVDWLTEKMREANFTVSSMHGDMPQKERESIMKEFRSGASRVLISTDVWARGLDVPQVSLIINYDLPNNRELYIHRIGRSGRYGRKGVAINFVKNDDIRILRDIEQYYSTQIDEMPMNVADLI
Sequence of proteins of HEK293T cells transiently overexpressing caspase-6 (Homo sapiens, UniProt O94919) (O94919 22-500): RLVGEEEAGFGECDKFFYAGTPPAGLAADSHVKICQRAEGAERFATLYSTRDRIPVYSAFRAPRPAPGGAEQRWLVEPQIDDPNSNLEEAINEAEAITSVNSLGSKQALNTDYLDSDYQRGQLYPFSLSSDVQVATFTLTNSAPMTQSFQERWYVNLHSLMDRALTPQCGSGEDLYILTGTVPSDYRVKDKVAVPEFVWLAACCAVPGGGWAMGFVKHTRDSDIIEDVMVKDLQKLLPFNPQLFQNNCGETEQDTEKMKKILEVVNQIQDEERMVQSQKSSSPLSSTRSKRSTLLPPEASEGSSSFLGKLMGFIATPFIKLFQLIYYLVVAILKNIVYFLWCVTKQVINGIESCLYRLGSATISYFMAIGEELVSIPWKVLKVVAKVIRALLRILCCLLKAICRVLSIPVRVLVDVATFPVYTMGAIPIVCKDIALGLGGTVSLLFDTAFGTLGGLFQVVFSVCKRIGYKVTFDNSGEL

For `C#CCOc1ccc([C@@H]2C[C@@H](C(=O)Nc3ccc(OC(F)(F)F)cc3)CN(S(=O)(=O)C=C)C2)cc1` (relative stereo) [13-t], the enrich.exp.med in test [1] was -0.1243; in test [2], -1.112; in test [3], 0.4718; in test [4] (exp_ref Probe), 2.527; in test [5] (exp_ref Probe, analysis C6), 0.6793; in [6], 0.7561. Moreover, the enrich.exp.med in [7] is recorded as -2.083; in test [8] it was -0.1134; in [9], -0.3746; in test [10] it was 0.006951; in [11], 0.5184; in test [12] (exp_ref Probe, analysis C6), 0.3732. In addition, the enrich.exp.med in test [13] was 1.73; in test [14], 0.4694. Besides, the enrich.exp.med.lin in test [4] (Expt Probe) amounted to 5.762; in [5], 1.601; in test [12], 1.295. Further, the figures for the enrich.exp.med.log2 in test [4] (Expt Probe), in [5] and in test [12] were 2.527, 0.6793 and 0.3732, respectively.
